In publication PMC12655637, “Design, Synthesis, and Mechanistic Study of Novel Ciprofloxacin/Thiazole Chalcone Hybrids as Potential Anticancer Agents” (Pharmaceuticals, 2025):

What was measured:
Assay in all cases: NCI-60 screening, one-dose (10 µM) and five-dose, SRB
NCI-H522 = type: cell-based, human
HT29 = type: cell-based, human
UACC-62 = type: cell-based
U251 = type: cell-based, human
MDA-MB-435 = type: cell-based
MALME-3M = type: cell-based, human
HOP-62 = type: cell-based, human
OVCAR-8 = type: cell-based, human
LOX IMVI = type: cell-based, human; conditions: five-dose
T-47D = type: cell-based, human; conditions: five-dose
NCI-H322M = type: cell-based, human
A498 = type: cell-based; conditions: five-dose, A498
SNB-75 = type: cell-based, human
SF-539 = type: cell-based, human; conditions: five-dose, SF-539
SK-MEL-28 = type: cell-based, human
HL-60(TB) = type: cell-based, human; conditions: Homo sapiens, HL-60, 10 μM; HL-60(TB), Leukemia; read-out: Growth percentage
[1] = Homo sapiens, five-dose, NCI-H522
[2] = Homo sapiens, HT-29, five-dose, HT29
[3] = Homo sapiens, five-dose, UACC-62
[4] = Homo sapiens, U-251, five-dose, U251
[5] = Homo sapiens, five-dose, HOP-62
[6] = Homo sapiens, five-dose, OVCAR-8
[7] = Homo sapiens, read-out: LC50 (the source's name)
[8] = Homo sapiens, five-dose, SNB-75
[9] = Homo sapiens, five-dose, SK-MEL-28

With `Cc1nc(SCC(=O)N2CCN(c3cc4c(cc3F)c(=O)c(C(=O)O)cn4C3CC3)CC2)sc1C(=O)/C=C/c1cccc(F)c1` [Compound 4d, (E)-1-Cyclopropyl-6-fluoro-7-(4-(2-((5-(3-(3-fluorophenyl)acryloyl)-4-methylthiazol-2-yl)thio)acetyl)piperazin-1-yl)-4-oxo-1,4-dihydroquinoline-3-carboxylic Acid] the activity at 10 µM (NCI-H522; Homo sapiens, 10 μM, NCI-H522, Non-Small-Cell Lung Cancer, read-out: Growth percentage) was 88.2%, the GI50 (NCI-H522; [1]) was > 100 µM and the IC50 (NCI-H522; [1]) was > 100 µM. For the same compound, the LC50 (concentration killing 50% of cells) (NCI-H522; [1]) was > 100 µM, the TGI (NCI-H522; five-dose, NCI-H522) was 100.0 µM and the activity at 10 µM (HT29; Homo sapiens, HT-29, 10 μM, HT29, Colon Cancer, read-out: Growth percentage) was 3.7%. For the same compound, the GI50 (HT29; [2]) was > 100 µM, the IC50 (HT29; [2]) was 100 µM and the CC50 (HT29; Homo sapiens, HT-29, five-dose, HT29, read-out: LC50 (the source's name)) was > 100 µM. For the same compound, the TGI (HT29; five-dose, HT29) was 1.91 µM, the activity at 10 µM (UACC-62; Homo sapiens, 10 μM, UACC-62, Melanoma, read-out: Growth percentage) was 33.1% and the GI50 (UACC-62; [3]) was 25.7 µM. For the same compound, the IC50 (UACC-62; [3]) was > 100 µM, the CC50 (UACC-62; Homo sapiens, five-dose, UACC-62, read-out: LC50 (the source's name)) was > 100 µM and the TGI (UACC-62; five-dose, UACC-62) was 100.0 µM. For the same compound, the activity at 10 µM (U251; Homo sapiens, U-251, 10 μM, U251, CNS Cancer, read-out: Growth percentage) was -7.6%, the GI50 (U251; [4]) was > 100 µM and the IC50 (U251; [4]) was > 100 µM. The CC50 (U251; Homo sapiens, U-251, five-dose, U251, read-out: LC50 (the source's name)) was > 100 µM, the TGI (U251; five-dose, U251) was 100.0 µM and the GI50 (MDA-MB-435; Homo sapiens, MDA-MB-435) was 3.7 µM. The IC50 (MDA-MB-435; Homo sapiens, MDA-MB-435) was 6.9 µM, the activity at 10 µM (MDA-MB-435; Homo sapiens, MDA-MB-435, read-out: Growth percentage, 10 μM, MDA-MB-435, Melanoma) was -3.7% and the CC50 (MDA-MB-435; Homo sapiens, five-dose, MDA-MB-435, read-out: LC50 (the source's name)) was > 100 µM. For the same compound, the TGI (MDA-MB-435; five-dose, MDA-MB-435) was 100.0 µM, the Growth percentage (MALME-3M; 10 μM, Melanoma) was 106.8% and the GI50 (MALME-3M; Homo sapiens, five-dose) was > 100 µM. The IC50 (MALME-3M; Homo sapiens, five-dose) was > 100 µM, the CC50 (MALME-3M; Homo sapiens, five-dose, read-out: LC50 (the source's name)) was > 100 µM and the TGI (MALME-3M; five-dose) was 100.0 µM. It also gave an activity at 10 µM (HOP-62; Homo sapiens, HOP-62, 10 μM, HOP-62, Non-Small-Cell Lung Cancer, read-out: Growth percentage) of -55.3%, a GI50 (HOP-62; [5]) of 7.4 µM and an IC50 (HOP-62; [5]) of 72.4 µM. The CC50 (HOP-62; Homo sapiens, five-dose, HOP-62, read-out: LC50 (the source's name)) was > 100 µM, the TGI (HOP-62; five-dose, HOP-62) was 100.0 µM and the activity at 10 µM (OVCAR-8; Homo sapiens, 10 μM, OVCAR-8, Ovarian Cancer, read-out: Growth percentage) was 35.2%. For the same compound, the GI50 (OVCAR-8; [6]) was > 100 µM, the IC50 (OVCAR-8; [6]) was > 100 µM and the CC50 (OVCAR-8; Homo sapiens, five-dose, OVCAR-8, read-out: LC50 (the source's name)) was > 100 µM. The TGI (OVCAR-8; five-dose, OVCAR-8) was 100.0 µM, the GI50 (LOX IMVI; Homo sapiens) was 2.8 µM and the IC50 (LOX IMVI; Homo sapiens) was 4.1 µM. For the same compound, the CC50 (LOX IMVI; [7]) was > 100 µM, the TGI (LOX IMVI) was 100.0 µM and the GI50 (T-47D; Homo sapiens, T47D) was > 100 µM. For the same compound, the IC50 (T-47D; Homo sapiens, T47D) was > 100 µM, the CC50 (T-47D; Homo sapiens, T47D, read-out: LC50 (the source's name)) was > 100 µM and the TGI (T-47D) was 77.6 µM. The Growth percentage (NCI-H322M; 10 μM, Non-Small-Cell Lung Cancer) was 95.7%, the GI50 (NCI-H322M; Homo sapiens, five-dose) was > 100 µM and the IC50 (NCI-H322M; Homo sapiens, five-dose) was > 100 µM. For the same compound, the LC50 (NCI-H322M; Homo sapiens, five-dose) was > 100 µM, the TGI (NCI-H322M; five-dose) was 100.0 µM and the GI50 (A498; Homo sapiens) was > 100 µM. For the same compound, the IC50 (A498; Homo sapiens) was > 100 µM, the CC50 (A498; [7]) was > 100 µM and the TGI (A498) was 100.0 µM. For the same compound, the activity at 10 µM (SNB-75; Homo sapiens, 10 μM, SNB-75, CNS Cancer, read-out: Growth percentage) was 49.1%, the GI50 (SNB-75; [8]) was > 100 µM and the IC50 (SNB-75; [8]) was > 100 µM. The CC50 (SNB-75; Homo sapiens, five-dose, SNB-75, read-out: LC50 (the source's name)) was > 100 µM, the TGI (SNB-75; five-dose, SNB-75) was 100.0 µM and the GI50 (SF-539; Homo sapiens) was 2 µM. The IC50 (SF-539; Homo sapiens) was 4.1 µM, the CC50 (SF-539; [7]) was > 100 µM and the TGI (SF-539) was 100.0 µM. For the same compound, the activity at 10 µM (SK-MEL-28; Homo sapiens, 10 μM, SK-MEL-28, Melanoma, read-out: Growth percentage) was 77.5%, the GI50 (SK-MEL-28; [9]) was > 100 µM and the IC50 (SK-MEL-28; [9]) was > 100 µM. For the same compound, the CC50 (SK-MEL-28; Homo sapiens, five-dose, SK-MEL-28, read-out: LC50 (the source's name)) was > 100 µM, the TGI (SK-MEL-28; five-dose, SK-MEL-28) was 100.0 µM and the activity at 10 µM (HL-60(TB)) was -99.8%.
